Earlier results on two compounds are cited in patent publication US11817195B2, “Methods for lowering blood sugar with a gliflozin sodium-glucose cotransport 2 inhibitor pharmaceutical composition” (AstraZeneca UK Limited, priority 2018, dated 2023).

The conditions of series [1]: at least 14 double-blind, placebo-controlled, randomized studies.

Turning to `Cc1ccc([C@@H]2O[C@H](CO)[C@@H](O)[C@H](O)[C@H]2O)cc1Cc1ccc(-c2ccc(F)cc2)s1` [canagliflozin, (2S,3R,4R,5S,6R)-2-[3-[[5-(4-fluorophenyl)thiophen-2-yl]methyl]-4-methylphenyl]-6-(hydroxymethyl)oxane-3,4,5-triol], the incidence of hyperkalemia result (patients with moderate renal impairment, Mikhail, Curr. Drug Safety 9:127-132 (2014)) was “higher incidence of hyperkalemia”.

On to `CCOc1ccc(Cc2cc([C@@H]3O[C@H](CO)[C@@H](O)[C@H](O)[C@H]3O)ccc2Cl)cc1` [dapagliflozin, (2S,3R,4R,5S,6R)-2-[4-chloro-3-[(4-ethoxyphenyl)methyl]phenyl]-6-(hydroxymethyl)oxane-3,4,5-triol], for which the risk of hyperkalemia entry (administration of the drug) is given as “not correlated with an increased risk of hyperkalemia”. In addition, in series [1], the “efficacy to lower blood sugar” value is reported as “demonstrated”.
